Assay results as given in US10058593B2, “Methods and compositions for oral administration of proteins” (Oramed Ltd., priority 2008, dated 2018).

Test system: dogs
Experiment: Previous experiment in dogs treated with the same formulations
Type: in vivo, dog
Description: 4 days prior to dosing, formulation were prepared containing: (1) 8 mg insulin, 150 mg EDTA, 125 mg SBTI in 1 ml fish oil in a soft-gel capsule (SwissCup), (2). 8 mg insulin, 150 mg EDTA, 150000 KIU Aprotinin in 1 ml fish oil in a soft-gel capsule (SwissCup), (3) 8 mg insulin, 150 mg EDTA, 150000 KIU Aprotinin, 125 mg SBTI in 1 ml fish oil in a soft-gel capsule (SwissCup). The formulations were stored in the refrigerator (4° C.) until dosing.
Thus, the results regarding the reduction in blood glucose levels with insulin and a combination of protease inhibitors was unexpected.
Thus, the results regarding the reduction in blood C-peptide levels with insulin and a combination of protease inhibitors was unexpected.
The above described formulations are also active with 0.5 ml fish oil both in dogs and humans.

Aprotinin
reaction of dogs to Aprotinin: do not react
